Source: publication PMC6977516, “An assessment of the interaction for three Chrysanthemum indicum flavonoids and α‐amylase by surface plasmon resonance” (Food Science & Nutrition, 2019)
Where two headings read alike, the source gives them in different places. Marks after values point to notes of the source that are not given here.

Columns and labels:
α-amylase [1] = molecular target: T1, α-amylase (Bacillus subtilis, UniProt P00691); experiment: SPR: effect of pH and salt on the interaction between flavonoids and α-amylase; type: binding; conditions: flavonoid 200 μM; for optimal CaCl2 concentration for binding with α-amylase: CaCl2 0.04-0.2 M; for optimal MgCl2 concentration for binding with α-amylase: MgCl2 0.02-0.25 M
T1 construct: purchased Shanghai Ryon Biological Technology Co. Ltd
Method: The effect of pH on the interaction between three flavonoids and α‐amylase was carried out within the pH range (3–9) based on the method described in the above experiment. As is known to all, metal ions play a crucial role in maintaining normal physiological function of the α‐amylase. Moreover, salt is also widely used in food industry. To evaluate whether KCl, MgCl2, and CaCl2 can interfere with the interaction between flavonoids and α‐amylase, a series of 200 μM flavonoids with a various concentrations of KCl (0.02–0.3 M), MgCl2 (0.02–0.25 M), or CaCl2 (0.04–0.2 M) solutions were flowed over the chip surface modified with α‐amylase, respectively.

[2] = DPPH radical assay without or with α-amylase; conditions: mean ± RSD (n = 3); for Inhibition (%) of antioxidant activity by binding to α-amylase: (add α-amylase IC50 − not add α-amylase IC50)/not add α-amylase IC50
Method: The DPPH assay was performed to assess effect of α‐amylase on antioxidant activity of three flavonoids as following procedure (Kim et al., 2014). 2 mM DPPH solution was prepared by dissolving 0.0787 g of DPPH in 100 ml of anhydrous ethanol and stored at −20°C. α‐Amylase (300 μM) and three flavonoids (2.5–125 μM) were prepared with PBS (pH = 6.0) and ethanol, respectively. Samples were prepared by mixing flavonoids solution (without or with 10 μl α‐amylase), 100 μl of DPPH, and anhydrous ethanol. Then, samples were incubated for 10 min at room temperature. Absorbance at 517 nm was measured in the spectrophotometer. DPPH radical scavenging activity was calculated as follows (Liu et al., 2017):(4) DPPHradicalscavengingactivity(%)=1-Ai-Aj/Ac×100% in which AC is the absorbance of the DPPH (100 μl DPPH and 100 μl ethanol), Ai is the absorbance of the DPPH and sample (100 μl DPPH, 50 μl flavonoids, and 50 μl ethanol, or 100 μl DPPH, 50 μl flavonoids, 10 μl α‐amylase, and 40 μl ethano1), and Aj is the absorbance of the blank sample (50 μl flavonoids and 150 μl ethanol). All experiments were carried out in triplicate, and the results were expressed as mean ± RSD. IC50 values were obtained based on plotting the percentage of DPPH radical scavenging activity against the flavonoids concentration.

α-amylase [3] = molecular target: T1, α-amylase; experiment: Inhibition kinetics of α-amylase by Lineweaver-Burk plots; type: biochemical; conditions: for Inhibitory type: Lineweaver-Burk plots, starch 0.25-1.25 mg/ml
Method: To further explore the inhibitory type of three flavonoids on α‐amylase, kinetic analysis was carried out by using Lineweaver–Burk plots. Starch was used as substrate, and the inhibition kinetics of α‐amylase was evaluated by varying four different concentrations (0.25, 0.50, 1.00, and 1.25 mg/ml) of starch in the absence or presence of three flavonoids. The Lineweaver–Burk plots of the three flavonoids can be obtained from the double‐reciprocal plots between 1/[S] (starch concentration) and 1/[V] (reaction rate). Besides, different concentrations of flavonoids (0, 5, and 10 μM) were used and the three Lineweaver––Burk plots for each flavonoid can be obtained. The Ki (inhibition constant) value was obtained from the least‐squares regression line of the slopes of Lineweaver–Burk plots versus the corresponding flavonoid concentrations [I] (Kandra, Gyémánt, Zajácz, & Batta, 2004; Yang et al., 2014). The formula is(3) slope=Km/Vmax1+[I]/Ki Ki = intercept of Equation (3) on x axis (Yang et al., 2014)

α-amylase [4] = molecular target: T1, α-amylase; experiment: SPR binding assay of flavonoids to immobilized α-amylase; conditions: for kon: pH 6, read-out: Ka (association rate constant); for koff: pH 6, read-out: Kd (dissociation rate constant) × 10^–3
Method: A commercial BI‐2000 SPR instrument (Biosensing Instrument Inc.) was used for all SPR experiments in this study. The bare Au sensor chip was obtained from Biosensing Instrument Inc. The preparation of Au sensor chip can be referred to our previous published paper (Liu et al., 2014). A flow delivery system incorporated in the BI‐SPR platform pumped samples onto the SPR sensor chip at a flow rate of 10 μl/min. The 0.01 M PBS (pH = 6.0) buffer was used as the running buffer. The BI‐SPR 2000 control software (version 2.2.0.) was used to perform instrument operation and data processing. The Varioskan Flash (Multiskan GO 1510, Thermo Fisher Scientific) was used for the α‐amylase inhibitory activity and DPPH radical assays.
Binding assay of three flavonoids to α‐amylase was carried out using the SPR sensor. The immobilization of α‐amylase on the chip surface was performed using a standard amine coupling procedure as described previously (Liu, Luo, Li, She, & Gao, 2017). […] After the stable baseline was obtained, different concentrations of flavonoids (50–800 μM) were injected over the chip surface coated with α‐amylase, respectively. The SPR angle was monitored until the baseline stabilization. To enable reuse of the SPR chip, the chip surface could be regenerated using 2 mM NaOH after each measurement. Regeneration parameters were based on the strength of interaction between the analyte and α‐amylase. The chip surface was rinsed by PBS between each step. All the experiments were repeated three times, and kinetic parameters (ka, kd) were deduced by nonlinear fitting of the primary sensorgram data based on the 1:1 Langmuir‐binding model using the BI‐SPR 2000 control software (version 2.2.0.). The model has been widely used in protein–ligand binding analysis and can be calculated through the following formula (Gombau et al., 2019; Islam, Shen, Gurgel, Rojas, & Carbonell, 2014; Lee, Jeong, Jones, & Kim, 2011):(1) dR/dt=kaCRmax-R-kdR where R is the SPR signal at time t, and C is the concentration of the analyte. R max is the maximum analyte binding capacity in SPR signal. ka is the association rate constant and kd is the dissociation rate constant.

[5] = with 10 μl α-amylase (300 μM), read-out: Add α-amylase IC50 (DPPH radical scavenging)
[6] = without α-amylase, read-out: Not add α-amylase IC50 (DPPH radical scavenging)

T1 sequence (P00691 42-659): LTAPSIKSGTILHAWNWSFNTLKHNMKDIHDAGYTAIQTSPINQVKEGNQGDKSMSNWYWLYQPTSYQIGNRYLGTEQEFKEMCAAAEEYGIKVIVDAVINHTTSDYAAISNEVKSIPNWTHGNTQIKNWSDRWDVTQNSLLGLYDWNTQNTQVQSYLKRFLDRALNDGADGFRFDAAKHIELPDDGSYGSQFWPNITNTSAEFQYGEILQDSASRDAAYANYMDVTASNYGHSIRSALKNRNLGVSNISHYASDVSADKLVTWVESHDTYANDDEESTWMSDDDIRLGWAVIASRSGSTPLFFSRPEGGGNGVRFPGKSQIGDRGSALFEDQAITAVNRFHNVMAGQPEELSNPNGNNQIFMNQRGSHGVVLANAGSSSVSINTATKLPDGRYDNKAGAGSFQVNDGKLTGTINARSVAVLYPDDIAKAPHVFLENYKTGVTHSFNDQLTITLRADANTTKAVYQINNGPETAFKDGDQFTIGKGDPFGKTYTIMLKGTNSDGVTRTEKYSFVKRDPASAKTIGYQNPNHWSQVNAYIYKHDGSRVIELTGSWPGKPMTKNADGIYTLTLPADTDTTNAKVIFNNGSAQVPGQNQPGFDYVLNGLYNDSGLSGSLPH

SMILES	optimal CaCl2 concentration for binding with α-amylase (α-amylase [1]) [M]	optimal MgCl2 concentration for binding with α-amylase (α-amylase [1]) [M]	IC50 [2, 5] [µM]	IC50 [2, 6] [µM]	Ki (α-amylase [3]) [µM]	Inhibitory type (α-amylase [3])	Kd (α-amylase [4]) [µM]	kon (α-amylase [4]) [M⁻¹ s⁻¹]	koff (α-amylase [4]) [s⁻¹]	Inhibition (%) of antioxidant activity by binding to α-amylase [2]	Ki (α-amylase [3]; slopes of Lineweaver-Burk plots vs flavonoid concentration (0, 5, 10 μM), starch substrate, read-out: Ki) [µM]	Kd (α-amylase [4]; SPR, 1:1 model, pH 6.0, mean ± RSD (n = 3), read-out: KD (equilibrium dissociation constant)) [µM]
COc1ccc(-c2cc(=O)c3c(O)cc(O)cc3o2)cc1 [Acacetin, acacetin]	0.100	0.120	77.8	61.3	39.7	Noncompetitive	2920 ± 200	2.76 ± 6	0.008 ± 0.00015	–	–	–
COc1ccc(-c2cc(=O)c3c(O)cc(O[C@@H]4O[C@H](CO[C@@H]5O[C@@H](C)[C@H](O)[C@@H](O)[C@H]5O)[C@@H](O)[C@H](O)[C@H]4O)cc3o2)cc1 [Buddleoside]	0.100	0.120	79.13 ± 0.012	65.05 ± 0.02	43.5	Noncompetitive	3300 ± 80	2.54 ± 0.2	0.0083 ± 0.00015	21.65 ± 0.04^a %	–	–
O=c1cc(-c2ccc(O)c(O)c2)oc2cc(O)cc(O)c12 [Luteolin, luteolin]	0.120	0.150	75.2	50.1	–	Noncompetitive	–	4.12 ± 0.1	0.00808 ± 0.00011	49.93 ± 0.037^c %	26.8	1970 ± 120
